Measured values taken from patent US12139481B2, “Compositions comprising macrocycle derivatives incorporating bridged macrocycles and methods of producing and using same” (Southwestern Oklahoma State University, priority 2015, dated 2024).

Columns and labels:
[1] = tested on: Cryptococcus neoformans ATCC 90113; experiment: Antimicrobial microdilution assay against Cryptococcus neoformans (modified CLSI/NCCLS, optical density); type: cell-based; details: for X more potent than Amphotericin B: C. neoformans, ratio of molar IC50 to Amphotericin B; for C. neoformans IC50 / IC50: in vitro, C. neoformans ATCC 90113; for IC50: read-out: C. neoformans IC50 (mol/L)
In short: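 Fungicidal endpoint taken by subculturing 5 μL from each clear well onto agar, MFC being the lowest concentration with no regrowth. Duplicate wells of serially diluted compound (20% DMSO/saline) in RPMI pH 6.0, read at 630 nm pre- and post-incubation, under modified CLSI methods. IC50 means 50% growth inhibition against controls.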

[2] = tested on: S. mansoni newly transformed schistosomula (NTS); experiment: In vitro testing on Schistosoma mansoni newly transformed schistosomula (NTS), viability score; type: cell-based; details: NTS S. mansoni, 33 μM, 72 h
Protocol: Assays were prepared according to the laboratory SOP for the lab of Dr. Jennifer Keiser (Swiss Tropical and Public Health Institute, Basel). Harvested S. mansoni cercariae (Liberian strain) obtained from infected Biomphalaria glabrata snails were mechanically transformed into newly transformed schistosomula (NTS) following standard procedures. Briefly, snails were placed under light in the morning to stimulate cercarial shedding. The cercarial suspension was collected, cooled for 30 minutes, and then vigorously pipetted (30×) and vortexed (3 minutes). The suspension was then placed in the incubator (37° C. and 5% CO2) for 30 minutes, and the vortexing and pipetting steps were repeated. The transformation was complete at this point, and the tails were separated from the heads by rinsing three times with cold HBSS. NTS were then incubated overnight in culture medium overnight and used the next day.
The original stock compounds (which were not already dissolved) were dissolved in dimethyl sulfoxide (DMSO) to a concentration of 10 mM. 100 NTS were placed in each well of a 96-well plate with culture medium, and the test compound for a final well volume of 250 μl. […] NTS incubated with no more than 1% DMSO served as control. NTS were kept in an incubator at 37° C. and 5% CO2 for up to 72 hours. After 72 hours, the condition of the NTS was microscopically evaluated using a scale from 3 (normal activity and no tegument alteration) to 0 (dead, completely granulated).

C. glabrata ATCC 90030 = experiment: Antifungal broth dilution assay against C. glabrata (modified CLSI); type: cell-based, Candida glabrata; details: for C. glabrata IC50 / IC50: in vitro; for IC50: converted with molecular weight; for X more potent than Amphotericin B: molar IC50 ratio versus amphotericin B
In short: (§1)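 Growth read by optical density at 530 nm, duplicate wells, 1% final DMSO. Staphylococcus spp.: Mueller-Hinton pH 7.3, 5.0×10^5 CFU/ml, 35 °C for 16-20 h; Candida spp.: RPMI/dextrose/glutamine/MOPS pH 6.0, 1.5×10^3 CFU/ml, 35 °C for 46-50 h. Reported values are 50% inhibition versus controls, no-growth MIC, and killing MFC/MBC.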

[3] = tested on: methicillin-resistant S. aureus ATCC 33591 (MRS); experiment: Antibacterial broth dilution assay against MRSA (modified CLSI); type: cell-based, Staphylococcus aureus; details: for MRSa IC50 / IC50: in vitro; for IC50: converted with molecular weight; for X more potent than ciprofloxacen: molar IC50 ratio versus ciprofloxacen
Protocol: General Experimental Procedures. All organisms were obtained from the American Type Culture Collection (Manassas, VA) and include the fungi Candida albicans ATCC 90028, C. glabrata ATCC 90030, C. krusei ATCC 6258, and Cryptococcus neoformans ATCC 90113, and the bacteria Staphylococcus aureus ATCC 29213 and methicillin-resistant S. aureus ATCC 33591 (MRS). All organisms were tested using modified versions of the CLSI (formerly NCCLS) methods. For all organisms, optical density was used to monitor growth (NCCLS, Reference Method for Broth Dilution Antifungal Susceptibility Testing of Yeasts; Approved Standard M27-A2. National Committee on Clinical Laboratory Standards, 2002 22 (15); and NCCLS, Methods for Dilution Antimicrobial Susceptibility Tests for Bacteria that Grow Aerobically; Approved Standard, Seventh Edition M7-A7. National Committee on Clinical Laboratory Standards, 2006. 26(2)).
Samples (dissolved in DMSO) were serially-diluted in 20% DMSO/saline and transferred (10 μL) in duplicate to 96 well flat bottom microplates. Inocula were prepared by correcting the OD630 of microbe suspensions in incubation broth [RPMI 1640/0.2% dextrose/0.03% glutamine/MOPS @ pH 6.0 (Cellgro) for Candida spp., Sabouraud Dextrose for C. neoformans, and cation-adjusted Mueller-Hinton (Difco) @ pH 7.3 for Staphylococcus spp. to afford an assay volume of […] and final target inocula of: Candida spp. and C. neoformans: 1.5×10^3, and Staphylococcus spp.: 5.0×10^5 CFU/ml. Final sample test concentrations were 1/100th the DMSO stock concentration. […] All organisms were read at either 530 nm using the Biotek Powerwave XS plate reader (Bio-Tek Instruments, Vermont) prior to and after incubation: Candida spp. at 35° C. for 46-50 h, Staphylococcus spp. at 35° C. for 16-20 h, and C. neoformans at 35° C. for 70-74 h. IC50s (concentrations that afford 50% inhibition relative to controls) were calculated using XLfit 4.2 software (IDBS, Alameda, CA) using fit model 201. The MIC is defined as the lowest test concentration that allows no detectable growth. Minimum fungicidal or bactericidal concentrations were determined by removing 5 μl from each clear (or blue) well, transferring to fresh media, and incubating as previously mentioned. The MFC/MBC is defined as the lowest test concentration that kills the organism (allows no growth).
Primary Analysis. Samples were tested in duplicate at one test concentration (50 μg/mL), and percent inhibitions were calculated relative to blank and growth controls. Samples showing 50% inhibition in at least one test organism were selected for dose response (Secondary) studies.
Secondary Analysis. Extracts from the Primary Assay, and first-run pure compounds and column fractions were tested in duplicate at 3 test concentrations (5-fold dilutions). Samples dissolved to 20 mg/mL in DMSO were tested at 200, 40, and 8 μg/mL. Samples dissolved to 2 mg/mL in DMSO were tested at 20, 4, and 0.8 μg/mL.

[4] = tested on: L. donovani promastigotes; experiment: Antileishmanial Alamar Blue assay on promastigotes; type: cell-based, Leishmania donovani; details: for X more potent than Pentamidine: L. donovani, ratio of molar IC50 to Pentamidine; for L. donovani IC50 / IC50: promastigotes, 48 hours, Alamar Blue; for IC50: read-out: L. donavani IC50
In short: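 Alamar Blue fluorescence (544/590 nm) quantified growth after 48 hours at 26° C of compound-treated promastigotes. Parasites were seeded at 5×10^5/mL in RPMI 1640 plus 10% FCS; drug range 50-3.1 μg/mL, and IC50 derived by plotting percent growth against test concentration.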

[5] = tested on: Staphylococcus aureus ATCC 29213; experiment: Antibacterial broth dilution assay against S. aureus (modified CLSI); type: cell-based; details: for S. aureus IC50 / IC50: in vitro; for IC50: converted with molecular weight; for X more potent than ciprofloxacen: molar IC50 ratio versus ciprofloxacen
In short: as §1

C. krusei ATCC 6258 = experiment: Antifungal broth dilution assay against C. krusei (modified CLSI); type: cell-based, Candida krusei
In short: as §1

| Compound | X more potent than Amphotericin B [1] | C. neoformans IC50 [1] [µg/mL] | IC50 [1] [µM] | Effect at 72 h (%) [2] [%] | MRSa IC50 [3] [µg/mL] | IC50 [3] [µM] | X more potent than ciprofloxacen [3] | X more potent than Pentamidine [4] | L. donovani IC50 [4] [µg/mL] | IC50 [4] [µM] | S. aureus IC50 [5] [µg/mL] | IC50 [5] [µM] | X more potent than ciprofloxacen [5] | other results |
| --- | --- | --- | --- | --- | --- | --- | --- | --- | --- | --- | --- | --- | --- | --- |
| CC(=O)[O-].CC(=O)[O-].CC(=O)[O-].CN1CCN2CCN(CC1)CCN(Cc1cc(CN3CCN4CCN(C)CCN(CC4)CC3)cc(CN3CCN4CCN(C)CCN(CC4)CC3)c1)CC2.F[P-](F)(F)(F)(F)F.F[P-](F)(F)(F)(F)F.F[P-](F)(F)(F)(F)F.[Cu+2].[Cu+2].[Cu+2] [BNS21, [Cu3(tris-CB-Cyclens)(OAc)3][PF6]3] | 0.28 | 1.320 | 0.85 | 5.41 |  |  |  |  |  |  |  |  |  |  |
| CC(=O)[O-].CC(=O)[O-].CC(=O)[O-].CN1CCN2CCN(CC1)CCN(Cc1cc(CN3CCN4CCN(C)CCN(CC4)CC3)cc(CN3CCN4CCN(C)CCN(CC4)CC3)c1)CC2.F[P-](F)(F)(F)(F)F.F[P-](F)(F)(F)(F)F.F[P-](F)(F)(F)(F)F.O.O.O.O.O.O.[Zn+2].[Zn+2].[Zn+2] [BNS22, [Zn3(tris-CB-Cyclens)(OAc)3][PF6]3•6H2O] | 0.12 | 3.410 |  | 11.71 |  |  |  |  |  |  |  |  |  |  |
| CC(=O)[O-].CC(=O)[O-].CC(=O)[O-].CN1CCCN2CCN(CCCN(Cc3cc(CN4CCCN5CCN(C)CCCN(CC5)CC4)cc(CN4CCCN5CCN(C)CCCN(CC5)CC4)c3)CC2)CC1.F[P-](F)(F)(F)(F)F.F[P-](F)(F)(F)(F)F.F[P-](F)(F)(F)(F)F.[Cu+2].[Cu+2].[Cu+2] [BNS025] |  |  |  | 18.02 |  |  |  |  |  |  |  |  |  |  |
| CC(=O)[O-].CC(=O)[O-].CN1CCCN2CCN(CCCN(Cc3cccc(CN4CCCN5CCN(C)CCCN(CC5)CC4)c3)CC2)CC1.F[P-](F)(F)(F)(F)F.F[P-](F)(F)(F)(F)F.F[P-](F)(F)(F)(F)F.F[P-](F)(F)(F)(F)F.[Co+3].[Co+3] [CDG010, [Co2(m-CB-Cyclams)(OAc)2][PF6]4] | 0.35 | 0.960 | 0.686 | 11.71 |  |  |  |  |  |  |  |  |  |  |
| c1c(CN2CCCN3CCN(CCCNCC2)CC3)cc(CN2CCCN3CCN(CCCNCC2)CC3)cc1CN1CCCN2CCN(CCCNCC1)CC2 [CDG019] |  |  |  | 0.00 |  |  |  |  |  |  |  |  |  |  |
| c1c(CN2CCNCCN3CCN(CC3)CC2)cc(CN2CCNCCN3CCN(CC3)CC2)cc1CN1CCNCCN2CCN(CC2)CC1 [CDG029] |  |  |  | 24.32 |  |  |  |  |  |  |  |  |  |  |
| CC(=O)[O-].CN1CCCN2CCN(CCCN(Cc3ccccc3)CC2)CC1.F[P-](F)(F)(F)(F)F.[Co+2] [TRH016] |  |  |  | 11.71 |  |  |  |  |  |  |  |  |  |  |
| [Co2(p-CB-cyclam-cyclen)(OAc)2][PF6]2 [CMB027] | 0.32 | ≤ 0.800 | 0.74 |  | 5.390 | 4.99 | 0.04 | 0.18 | 32.62 | 30.2 | 7.36 | 6.81 | 0.04 | C. glabrata IC50 (C. glabrata ATCC 90030): 1.320 µg/mL; IC50 (C. glabrata ATCC 90030): 1.22 µM; X more potent than Amphotericin B (C. glabrata ATCC 90030): 1.16 |
| [Ni2(m-cyclam-homocyclen)(OAc)2][PF6]2•H2O [AW050] | 0.25 | 1.040 | 0.935 |  | 4.650 | 4.18 | 0.05 | 0.36 | 16.50 | 14.8 | 8.540 | 7.68 | 0.04 |  |
| [Zn2(p-CB-cyclam-cyclen)(OAc)][PF6]3•4H2O [CMB030] | 0.22 | 1.380 | 1.1 |  | 8.760 | 7 | 0.03 | 0.21 | 31.32 | 25 | 7.86 | 6.28 | 0.04 | C. glabrata IC50 (C. glabrata ATCC 90030): 4.190 µg/mL; IC50 (C. glabrata ATCC 90030): 3.35 µM; X more potent than Amphotericin B (C. glabrata ATCC 90030): 0.42 |
| m-SB-cyclens HCl salt [OB25B] | 0.74 | 0.300 | 0.324 |  | 5.450 | 5.88 | 0.04 | 0.43 | 11.45 | 12.4 | 5.940 | 6.41 | 0.04 | X more potent than Amphotericin B (C. krusei ATCC 6258; C. krusei, ratio of molar IC50 to amphotericin B): 0.21; C. krusei IC50 (C. krusei ATCC 6258; in vitro): 6.530 µg/mL; IC50 (C. krusei ATCC 6258; in vitro, read-out: C. krusei IC50 (mol/L)): 7.05 µM |
